Source: patent US9266922B2, “Antigen peptide and uses thereof” (priority 2011, dated 2016)
Read-outs that look alike come from different tables or passages of the source. Residues, ends and D or L forms follow the SMILES beside them.

Key:
[1] = biological target: T1, HLA-A*0201 (Homo sapiens, UniProt P04439, D140Y/D185E/D98H/E176V/E277Q/G131W/G231S/I119V/I121R/I166T/I218V/L300P/L318F/N151K/N90K/P208A/P217A/Q86G/Q94H/R138H/R169H/T345S); assay: iTOPIA EDS MHC peptide binding assay; conditions: HLA-A*0201 monomer, relative to positive control peptide, 21° C. for 18 h
Text: MHC peptide binding assay using iTOPIA EDS
Microtiter 96 well plates containing HLA class I MHC monomer loaded with the human β2-microglobulin and a “placeholder” peptide were used to evaluate peptide binding, affinity, and off-rate.
The 502 nectin4 nonapeptides were first evaluated for their ability to bind to each MHC molecule in the peptide binding assay. In this assay, the placeholder peptides were stripped from the MHC class I monomer complexes coated on plastic, which leaves the MHC class I heavy chain available as a binding partner for candidate peptides in the presence of human β2-microglobulin.
Peptide binding was performed at 21° C. for 18 h. Revelation was done using an anti HLA-ABC-FITC mAb that binds to refolded MHC complex conformation. The relative fluorescent intensity was read using a fluorimeter (Molecular Devices, SpectraMax Gemini, Sunnyvale, Calif., USA).
Peptides with a binding>30% of the positive control peptide were selected as “binder” and subsequently analyzed for affinity (ED50) and off-rate (T1/2).

[2] = biological target: T1, HLA-A*0201; assay: iScore calculation (iTOPIA system software); conditions: multiparametric score of binding, off-rate and affinity
[3] = biological target: T2, HLA A*0201 on CEM.T2 cell line (Homo sapiens, UniProt P04439, D140Y/D185E/D98H/E176V/E277Q/G131W/G231S/I119V/I121R/I166T/I218V/L300P/L318F/N151K/N90K/P208A/P217A/Q86G/Q94H/R138H/R169H/T345S); assay: Cellular dissociation assay on CEM.T2 cells; format: cell-based; conditions: after Brefeldin A 1 h and 3 h in serum-free RPMI at 37° C. (4 h)
T2 construct: This cell line expresses HLA A*0201 but is deficient for TAP transporter; endogenous in cells; host or cells: CEM.T2 (T2) cell line
Experimental: Cellular Dissociation Assay
After HLA-A2*0201 stabilization with peptides at 37° C. for 4 h, T2 cells were incubated for 1 h, in serum-free RPMI containing Brefeldin A (10 μg/ml), an inhibitor of the transport of secretory and lysosomal proteins [G. J. Strous et al., 1993]. After 3 washes, T2 cells were incubated for 3 h in serum-free RPMI at 37° C. Binding was then measured by FACS and after 4 h incubation. Percentage of Residual Binding (% RB) was calculated as follows: […]

[4] = biological target: T2, HLA A*0201 on CEM.T2 cell line; assay: Cellular binding assay, HLA stabilization on CEM.T2 cells; format: cell-based; conditions: 100 μM peptide, 37° C. for 4 h, FACS anti HLA-A2; relative to HBV positive control peptide
Experimental: The CEM.T2 cell line (T2) is defective in the processing of proteins for presentation by MHC class 1 molecules. This cell line expresses HLA A*0201 but is deficient for TAP transporter. T2 is classically used to assess the Peptide/HLA-A*0201 Complex Stability[H. W. Nijman et al., 1993]
For HLA-A2*0201 stabilization, T2 cells (2×10^5/well) were incubated in serum-free RPMI (Gibco®-France) with 100 μM of selected peptide, at 37° C. for 4 h. Cells were washed two times with PBS supplemented with 1% BSA and stained with fluorescein isothiocyanate-conjugated anti HLA-A2 (Clone BB7.2) (BD Bioscience Pharmingen-France-) at 4° C. for 45 min. After 3 washes, cells were fixed in PBS supplemented with 2% paraformaldehyde and analyzed by FACS (FACScan, BD Bioscience). The percentage of peptide binding was calculated as follows: % Binding={(MFI peptide sample−MFI Neg control)/(MFI Pos control−MFI Neg control)}×100
Negative control was done without peptide.

[5] = biological target: T1, HLA-A*0201; assay: biochemical; format: binding
[6] = biological target: T1, HLA-A*0201; assay: F-Score ranking (iTOPIA and CEM T2); conditions: overall ranking by iTOPIA and CEM T2 assays, nectin4 and reference peptides together

SMILES: CC(C)C[C@H](NC(=O)[C@@H](N)CC(C)C)C(=O)N[C@@H](C)C(=O)N[C@@H](CO)C(=O)N[C@@H](Cc1ccccc1)C(=O)N[C@H](C(=O)NCC(=O)N[C@@H](CCCNC(=N)N)C(=O)N[C@@H](CS)C(=O)O)[C@@H](C)O [Peptide 21] (H-LLASFTGRC-OH; N-terminus and C-terminus assumed)
- % Binding [1]: 91%
- iScore [2]: 0.727
- CEM.T2 % Residual Binding [3]: 86%
- CEM.T2 % Binding [4]: 44%
- EC50 ([5]; FIG. 2A, peptide concentration 10^−4 to 10^−9 M, read-out: estimated dose to reach 50% maximal binding (ED50)): ~0.1 µM
- EC50 ([5]; peptide concentration giving 50% of optimal binding, 10^−4 to 10^−9 M, 21° C. for 18 h, read-out: Affinity (ED50)): 0.6 µM
- RANK F-Score [6]: 11
